In the NIST ThermoML archive (doi:10.1021/acs.jced.6b00687):

Assay: xn = mol fraction of the nth substance listed
Settings: Gas, Buoyancy - hydrostatic balance with magnetic suspension - two sinkers

[Ar] [argon] + O=C=O
Settings | mass density [kg/m3]
273.15 K, 510.11 kPa, x2 = 0.7509 | 9.89648
273.15 K, 511.42 kPa, x2 = 0.5 | 9.60258
273.15 K, 1005.7 kPa, x2 = 0.7509 | 20.0055
273.15 K, 1013.1 kPa, x2 = 0.5 | 19.3275
273.15 K, 2007.3 kPa, x2 = 0.7509 | 42.2195
273.15 K, 2996.7 kPa, x2 = 0.7509 | 67.1561
273.15 K, 3008.4 kPa, x2 = 0.5 | 61.4185
273.15 K, 4022.5 kPa, x2 = 0.7509 | 97.4841
273.15 K, 4488.6 kPa, x2 = 0.7509 | 113.378
273.15 K, 5000.6 kPa, x2 = 0.7509 | 133.062
273.15 K, 5017 kPa, x2 = 0.5 | 110.665
273.15 K, 6031.1 kPa, x2 = 0.5 | 138.861
273.15 K, 6410 kPa, x2 = 0.5 | 150.086
283.15 K, 508.18 kPa, x2 = 0.7509 | 9.48215
283.15 K, 1002 kPa, x2 = 0.7509 | 19.109
283.15 K, 2002.5 kPa, x2 = 0.7509 | 40.0616
283.15 K, 2989.1 kPa, x2 = 0.7509 | 63.047
283.15 K, 3992.2 kPa, x2 = 0.7509 | 89.5274
283.15 K, 4988.1 kPa, x2 = 0.7509 | 120.07
283.15 K, 6073.3 kPa, x2 = 0.7509 | 160.561
283.15 K, 6588 kPa, x2 = 0.7509 | 183.67
283.15 K, 7263.8 kPa, x2 = 0.7509 | 219.753
293.15 K, 502.06 kPa, x2 = 0.7509 | 9.02478
293.15 K, 1001.8 kPa, x2 = 0.7509 | 18.3618
293.15 K, 2024.4 kPa, x2 = 0.7509 | 38.7149
293.15 K, 3001.1 kPa, x2 = 0.7509 | 60.0081
293.15 K, 4009 kPa, x2 = 0.7509 | 84.353
293.15 K, 4996.8 kPa, x2 = 0.7509 | 111.184
293.15 K, 6024 kPa, x2 = 0.7509 | 143.207
293.15 K, 7049 kPa, x2 = 0.7509 | 180.86
293.15 K, 8016.8 kPa, x2 = 0.7509 | 223.61
293.15 K, 9051.1 kPa, x2 = 0.7509 | 279.404
298.15 K, 505.28 kPa, x2 = 0.5 | 8.65443
298.15 K, 1014.6 kPa, x2 = 0.5 | 17.5824
298.15 K, 2019.2 kPa, x2 = 0.5 | 35.8258
298.15 K, 3020.7 kPa, x2 = 0.5 | 54.9064
298.15 K, 4024.4 kPa, x2 = 0.5 | 75.0005
298.15 K, 5017 kPa, x2 = 0.5 | 95.8895
298.15 K, 6025.4 kPa, x2 = 0.5 | 118.229
298.15 K, 7045.2 kPa, x2 = 0.5 | 142.007
298.15 K, 8014 kPa, x2 = 0.5 | 165.743
323.15 K, 514.24 kPa, x2 = 0.7509 | 8.34326
323.15 K, 516.98 kPa, x2 = 0.4998 | 8.14761
323.15 K, 1021 kPa, x2 = 0.7509 | 16.796
323.15 K, 1022 kPa, x2 = 0.4998 | 16.244
323.15 K, 2012.2 kPa, x2 = 0.7509 | 34.0421
323.15 K, 3034 kPa, x2 = 0.4998 | 49.9179
323.15 K, 3036.1 kPa, x2 = 0.7509 | 52.9514
323.15 K, 4037.8 kPa, x2 = 0.7509 | 72.6588
323.15 K, 5040.2 kPa, x2 = 0.4998 | 85.8585
323.15 K, 5061.8 kPa, x2 = 0.7509 | 94.214
323.15 K, 6055.5 kPa, x2 = 0.7509 | 116.646
323.15 K, 7040 kPa, x2 = 0.4998 | 124.127
323.15 K, 7054.8 kPa, x2 = 0.7509 | 140.911
323.15 K, 8053.7 kPa, x2 = 0.7509 | 167.037
323.15 K, 9016.6 kPa, x2 = 0.4998 | 164.336
323.15 K, 9045 kPa, x2 = 0.7509 | 195.026
